Key:
[1] = target: hMRGX2 (CHO-K1 cells overexpressing MRGX2) (Homo sapiens (Human), UniProt Q96LB1); assay: In vitro inhibition (EC50) of intracellular calcium flux, FLIPR Tetra, substance P stimulation; format: cell-based; conditions: stimulated with MRGX2 ligand substance P, FLIPR Calcium 5, read-out: hMRGX2 Cellular Potency (pEC50) (converted)
In short: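 CHO-K1 cells overexpressing human MRGX2, loaded with Calcium 5 dye for 30 min at 37 °C, then given compound (11-point, top 10 μM).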

human MRGX2 receptor = human MRGX2 receptor (Homo sapiens (Human), UniProt Q96LB1); assay: In vitro radioligand binding assay (Kd); conditions: membrane from SF9 cells overexpressing human MRGX2; 3H-labeled ligand; pH 7.4, room temperature, 60 minutes
Sequence of human MRGX2 receptor (Q96LB1 whole entry): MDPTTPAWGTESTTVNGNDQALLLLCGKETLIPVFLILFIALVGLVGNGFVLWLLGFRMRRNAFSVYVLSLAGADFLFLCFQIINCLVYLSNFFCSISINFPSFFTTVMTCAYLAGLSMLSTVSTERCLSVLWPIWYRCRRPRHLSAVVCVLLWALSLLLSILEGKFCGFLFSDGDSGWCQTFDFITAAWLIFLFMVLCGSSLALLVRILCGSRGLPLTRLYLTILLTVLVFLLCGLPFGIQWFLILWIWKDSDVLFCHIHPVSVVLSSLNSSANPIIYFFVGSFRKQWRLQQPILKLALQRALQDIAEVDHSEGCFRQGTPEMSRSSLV
Procedure: In vitro Radioligand Binding Assay (Kd)
Equilibrium dissociation constants, Kd, for many of the compounds described in the Examples section (“test compounds”) are determined in the presence cellular membrane prepared from SF9 cell lines overexpressing the human MRGX2 receptor. The assay is carried out in a 96-well plate (Greiner V-Bottom #651201). […] The assay mixtures, which comprise MRGX2 receptor, radiolabeled ligand and test compound, are incubated at room temperature (˜22° C.) for 60 minutes to reach equilibrium. After incubation, the assay mixtures are collected on a filter mat (Filtermat A, Perkin Elmer) using a cell harvester (Harvester 96, TOMTEC). The filter mat is completely dried. A solid scintillant (Meltilex, Perkin Elmer) is added to each filter membrane and the level of radioactivity (“Signal”) from each well (assay mixture) is recorded using a scintillation counter (Trilux Microbeta, PerkinElmer). Kd is determined by curve-fitting the dose response data ([I], Signal) for each set of samples to the equation,
[formula] where [I] is the concentration of the test compound. The data are reported as pKd

Sequence of hMRGX2 (CHO-K1 cells overexpressing MRGX2) (Q96LB1 whole entry): as above

| EC50 [1] | hMRGX2 Binding Affinity (pKd) (human MRGX2 receptor) | Structure (SMILES) |
| --- | --- | --- |
| 0.0791 µM | 6.54 | Cc1ccccc1-c1cccc2c1NC(NCc1ccco1)=NS2(=O)=O [Example 137, 3-((furan-2-ylmethyl)amino)-5-(o-tolyl)-4H-benzo[e][1,2,4]thiadiazine 1,1-dioxide] |
| 0.262 µM | 6.095 | Cc1c(-c2cccc3c2NC(Nc2ccc(C(C)C)cc2)=NS3(=O)=O)cnn1C [Example 114, 5-(1,5-dimethyl-1H-pyrazol-4-yl)-3-((4-isopropylphenyl)amino)-4H-benzo[e][1,2,4]thiadiazine 1,1-dioxide] |
| 0.092 µM | 4.7 | COCCNC1=NS(=O)(=O)c2cccc(-c3ccccc3Cl)c2N1 [Example 35, 5-(2-chlorophenyl)-3-((2-methoxyethyl)amino)-4H-benzo[e][1,2,4]thiadiazine 1,1-dioxide] |
| 0.0692 µM | 6.35 | CNC1=NS(=O)(=O)c2cccc(-c3cccc(F)c3C#N)c2N1 [Example 89, 2-fluoro-6-(3-(methylamino)-1,1-dioxido-4H-benzo[e][1,2,4]thiadiazin-5-yl)benzonitrile] |
| 0.0782 µM | 6.545 | COCCNC1=NS(=O)(=O)c2cccc(-c3cccc(F)c3C#N)c2N1 [Example 125, 2-fluoro-6-(3-((2-methoxyethyl)amino)-1,1-dioxido-4H-benzo[e][1,2,4]thiadiazin-5-yl)benzonitrile] |
| 0.0103 µM | 7.5 | O=S1(=O)N=C(NCc2ncccc2F)Nc2c(-c3ccccc3Cl)cc(F)cc21 [Example 16, 5-(2-chlorophenyl)-7-fluoro-3-(((3-fluoropyridin-2-yl)methyl)amino)-4H-benzo[e][1,2,4]thiadiazine 1,1-dioxide] |
| 0.1 µM | 6.51 | Cc1ccccc1-c1cccc2c1NC(NCc1ccccn1)=NS2(=O)=O [Example 162, 3-((pyridin-2-ylmethyl)amino)-5-(o-tolyl)-4H-benzo[e][1,2,4]thiadiazine 1,1-dioxide] |
| 0.0294 µM | 7.22 | O=S1(=O)N=C(NCc2ncccn2)Nc2c(-c3cccc(F)c3Cl)cccc21 [Example 66, 5-(2-chloro-3-fluorophenyl)-3-((pyrimidin-2-ylmethyl)amino)-4H-benzo[e][1,2,4]thiadiazine 1,1-dioxide] |
| 0.119 µM | 6.535 | CCc1ccc(NC2=NS(=O)(=O)c3cccc(-c4cnn(C)c4)c3N2)cc1 [Example 136, 3-((4-ethylphenyl)amino)-5-(1-methyl-1H-pyrazol-4-yl)-4H-benzo[e][1,2,4]thiadiazine 1,1-dioxide] |
| 0.0154 µM | 6.975 | COCCNC1=NS(=O)(=O)c2cc(F)cc(-c3cccc(F)c3Cl)c2N1 [Example 4, 5-(2-chloro-3-fluorophenyl)-7-fluoro-3-((2-methoxyethyl)amino)-4H-benzo[e][1,2,4]thiadiazine 1,1-dioxide] |
| 0.102 µM | 6.47 | CNC1=NS(=O)(=O)c2cccc(-c3ccccc3Cl)c2N1 [Example 43, 5-(2-chlorophenyl)-3-(methylamino)-4H-benzo[e][1,2,4]thiadiazine 1,1-dioxide] |
| 0.0233 µM | 7.27 | O=S1(=O)N=C(NCC2CC2)Nc2c(-c3cccc(F)c3Cl)cc(F)cc21 [Example 7, 5-(2-chloro-3-fluorophenyl)-3-((cyclopropylmethyl)amino)-7-fluoro-4H-benzo[e][1,2,4]thiadiazine 1,1-dioxide] |
| 0.0156 µM | – | O=S1(=O)N=C(NCc2ccsn2)Nc2c(-c3cccc(F)c3Cl)cccc21 [Example 64, 5-(2-chloro-3-fluorophenyl)-3-((isothiazol-3-ylmethyl)amino)-4H-benzo[e][1,2,4]thiadiazine 1,1-dioxide] |
| 0.139 µM | – | O=S1(=O)N=C(NCCC2CCCO2)Nc2c(-c3cccc(F)c3Cl)cccc21 (centres unmarked) [Example 73, 5-(2-chloro-3-fluorophenyl)-3-((2-(tetrahydrofuran-2-yl)ethyl)amino)-4H-benzo[e][1,2,4]thiadiazine 1,1-dioxide] |

From patent publication US12247015B2, “3-amino-4H-benzo[e][1,2,4]thiadiazine 1,1-dioxide derivatives as inhibitors of MRGX2” (Solent Therapeutics, LLC, priority 2019, dated 2025)
